{"source": "patent US11976062B2", "about": "“Benzisoxazole compound” (OSAKA UNIVERSITY, priority 2018, dated 2024)", "tested_on": "α-SMA expression induced by TGFβ1 in dermal fibroblasts", "experiment": "Fibrosis inhibition evaluation 2: immunofluorescent staining of α-SMA in dermal fibroblasts", "assay_type": "cell-based, mice", "conditions": "10 μM, TGFβ1 10 ng/ml, 48 hours, FIG. 7", "description": "In the same manner as in Test Example 5, dermal fibroblasts were isolated from mice, and sterilized cover glass (diameter: 12 mm) was placed in a 12-well plate. On the cover glass, 2.5×10^5 cells were seeded and grown. After 24 hours, the medium was replaced with a medium free of fetal bovine serum, and the cells were cultured for another 24 hours. Separately, cardiac fibroblasts were isolated from 1 to 2-day-old rats and treated in the same manner as for the dermal fibroblasts. Thereafter, 10 ng/ml TGFβ1 was added to the dermal fibroblasts, and 2 ng/ml TGFβ2 was added to the cardiac fibroblasts, followed by culturing the cells for 48 hours. At the same time as TGFβ was added, 10 μM of a test compound (compound 011), 10 μM of Pyr 2 (conventional inhibitor), or DMSO (solvent control) was also added. Separately, cultured cells to which TGFβ-free phosphate buffered saline (PBS) was added were also prepared. […] After blocking with 1% bovine serum albumin, α-SMA was detected using anti-α-SMA antibody (Sigma) as the primary antibody and anti-mouse IgG antibody (Molecular Probes) fused with Alexa 488 as the secondary antibody, and an image was acquired using a fluorescence microscope (Keyence) with a 20× objective lens. The average fluorescence brightness (fluorescence intensity/pixel) per cell area was calculated and analyzed using Image J software.", "data": [{"smiles": "O=C(O)c1cnc(N2CCN(c3noc4cccc(C(F)(F)F)c34)CC2)c(Cl)c1", "note": "[Compound 011, 5-chloro-6-(4-(4-(trifluoromethyl)benzo[d]isoxazol-3-yl)piperazin-1-yl) nicotinic acid]", "values": [{"measurement": "expression of α-SMA induced by TGFβ (immunofluorescent staining)", "result": "almost completely suppressed the expression of α-SMA"}]}]}
